Test results published in patent US7867492B2, “Compounds for hedgehog pathway blockade in proliferative disorders, including hematopoietic malignancies” (The John Hopkins University, priority 2007, dated 2011).

Legend:
Hh pathway [1] = type: cell-based
K-ras pathway = type: cell-based
Gli = assay: Hh reporter in 3T3 cells cotransfected with SmoA1, Gli2 or Gli1; type: cell-based; conditions: presence or absence of ShhN
[2] = test system: medulloblastoma from Ptch+/−p53−/− mice; assay: Hh activity-induced medulloblastoma allografts in athymic nude mice; type: in vivo; conditions: daily intraperitoneal injection
Description: FIG. 7 is a pictorial and a graphical diagram showing that ATO inhibits growth of Hh activity-induced medulloblastoma allografts in nude mice. Primary medulloblastoma from Ptch+/−p53−/− mice were dissected and injected into athymic nude mice. The mice were injected daily with either control PBS or 3 different doses of ATO intraperitoneally.
The activity of ATO was then tested in vivo in a well-established model of a tumor that is dependent on Hh pathway activity for growth. In this model, primary medulloblastoma cells from Ptch+/−p53−/− mice were dissected and injected into athymic nude mice. The mice were then injected daily with either control PBS or 3 different doses of ATO intra-peritoneally.

Hh pathway [3] = assay: ATO combined with cyclopamine, 8×Gli-luciferase reporter in 3T3 cells; type: cell-based; conditions: cyclopamine at fixed concentrations of […] and 0.125 μM, presence of ShhN
Wnt pathway = assay: Wnt reporter (7×TCF/LEF-luciferase) in 3T3 cells; type: cell-based; conditions: increasing concentrations, presence or absence of Wnt3a-conditioned medium
From the text: 3T3 cells were transfected with a Wnt reporter (7×TCF/LEF-luciferase) and treated with increasing concentrations of ATO in the presence or absence of Wnt3a-conditioned medium.
To further assess the specificity of the arsenic effect on Hedgehog pathway signaling, 3T3 cells were transfected with a Wnt reporter (7×TCF/LEF-luciferase) and treated with increasing concentrations of ATO in the presence or absence of Wnt3a-conditioned medium.

| Compound | Hh signaling (reporter) (Hh pathway [1]) | K-ras pathway activity (SRE-luciferase reporter) (K-ras pathway) | Hh reporter activity induced by SmoA1, Gli2 or Gli1 over-expression (Gli) | Tumor allograft growth ([2]; 3 different doses, athymic nude mice) | Tumor allograft growth at the highest concentration tested ([2]; highest concentration tested) | Hh pathway activity (8×Gli-luciferase reporter) (Hh pathway [1]; NIH3T3 cells, increasing concentrations, presence or absence of ShhN-conditioned medium) | Effect of ATO on Hh pathway when combined with cyclopamine (Hh pathway [3]) | Wnt pathway activity (7×TCF/LEF-luciferase reporter) (Wnt pathway) |
| --- | --- | --- | --- | --- | --- | --- | --- | --- |
| O=[As][O-].[Na+] [NaAsO2] | inhibits Hh signaling | did not inhibit, and in fact stimulated the K-ras pathway |  |  |  |  |  |  |
| arsenic trioxide [ATO] |  |  | dramatically inhibited reporter activity | suppressed tumor allograft growth in a concentration dependent manner | complete growth suppression | inhibits Hh pathway in a dose-dependent manner | significantly improved effect of ATO at lower concentrations | does not inhibit the Wnt pathway |
